Reference: patent US10631537B2, “Disinfectant composition having residual biocidal properties” (LONZA LLC, priority 2016, dated 2020)

Columns and labels:
P. aeruginosa ATCC 15442 = experiment: First screening: residual self-sanitizing activity of dried film on stainless steel coupon, no wearing (modified EPA Protocol #01-1A); type: cell-based; conditions: about 30 mg on one square inch, dried overnight, 5 minute contact time
Protocol: (§1) First round of micro test was to evaluate the efficacy of the biocides against P. aeruginosa. About 30 mg of the biocide/polymer based formulation were coated on the one square inch area of a stainless steel coupon. The treated stainless steel coupons were left on the bench for air drying overnight. The dried stainless steel test samples were sent to a micro lab for efficacy testing against P. aeruginosa ATCC 15442 following a modified version of Residual Self-Sanitizing Activity on Hard, Non-Porous Surfaces (EPA Protocol #01-1A). […] Samples were inoculated with the test organism and held for a 5 minute contact time. Three replicates were tested for each sample.

P. aeruginosa = experiment: Second screening: efficacy of dried film after abrasion (0 rub vs 12 dry rubs); type: cell-based; conditions: active 0.4%, film PVOH, about 30 mg; for Log10 Reduction, 12 dry Rubs: no re-inoculation between rubs
Protocol: as §1, with “sample. Second round of testing was to compare the efficacy after an abrasion process. About 30 mg of the test formulation was coated on the one square inch area of a stainless steel coupon. Samples were divided into two groups: one group had 0 rub, and the other group had 12 dry rubs. No re-inoculation was applied between rubs.” for “sample.”

[1] = active concentration 0.4%, film PVOH

Compound | Log reduction (with culture dilution), average (P. aeruginosa ATCC 15442; active concentration 1.0%, film PVOH) [log] | Log10 Reduction, 12 dry Rubs (P. aeruginosa) [log10] | Log10 Reduction, No Rub (P. aeruginosa) [log10] | Log reduction (with culture dilution), average (P. aeruginosa ATCC 15442; [1]) [log] | Log reduction (with culture dilution), average (P. aeruginosa ATCC 15442; active concentration 0.4%, film PVP) [log]
N=C(NCCCCCCNC(=N)NC(=N)Nc1ccc(Cl)cc1)NC(=N)Nc1ccc(Cl)cc1 [Chlorhexidine digluconate] | ≥4.85 | 5.04 | 5.42 |  | 
Alkyldimethyl benzyl ammonium chlorides |  | 3.48 | 3.56 | 3.85 | 
CCCCCCCCCCCCN(CCCN)CCCN [N,N-bis(3-aminopropyl) dodecylamine, N,N-bis(3-aminopropyl)dodecylamine] |  | 4.77 | 5.22 | ≥4.85 | 4.05
